In article PMC4167909 (Analytical biochemistry, 2014):

Assays:
OXA-24/40 [1] = molecular target: T1, OXA-24/40 (Acinetobacter baumannii, UniProt Q8RLA6); experiment: kinetic competition with ampicillin as reporter substrate; type: biochemical
OXA-24/40 [2] = molecular target: OXA-24/40 (Acinetobacter baumannii, UniProt Q8RLA6, V130D); experiment: SDS-PAGE fluorescent acyl-enzyme detection, single-turnover conditions; type: binding
OXA-24/40 [3] = molecular target: T1, OXA-24/40; experiment: competitive inhibition of ampicillin hydrolysis; type: biochemical

C[C@@H](O)[C@H]1C(=O)N2C(C(=O)O)=C(S[C@@H]3CN[C@H](C(=O)N(C)C)C3)[C@H](C)[C@H]12 [meropenem]
Ki (OXA-24/40 [1]): 18 nM

C[C@@H](O)[C@H]1C(=O)N2C(C(=O)O)=C(S[C@H]3C[C@@H](C(=O)N(C)C)N(C(=S)Nc4ccc5c(c4)C(=O)OC54c5ccc(O)cc5Oc5cc(O)ccc54)C3)[C@H](C)[C@H]12 [FM, fluorescein-meropenem]
SDS-PAGE fluorescent acyl-enzyme detection, single-turnover conditions (OXA-24/40 [2]): All Val130 substitutions showed some degree of fluorescence labeling, but the Val130Asp, Val130Thr and Val130Asn substitutions most severely reduced deacylation | Ki (OXA-24/40 [3]): 43 nM
